Test results from article PMC6769468, “Endogenous Neuropeptide Nocistatin Is a Direct Agonist of Acid-Sensing Ion Channels (ASIC1, ASIC2 and ASIC3)” (Biomolecules, 2019).
Ends that are not written are not given here.

What was measured:
rat ASIC1b = target: T1, rat ASIC1b (Rattus norvegicus, UniProt P55926); assay: Whole-cell current activation, rat ASIC1b in X. laevis oocytes; format: cell-based
T1 construct: expressed in transfected cells; host or cells: Xenopus laevis oocytes (injected)
T1 sequence (P55926 1-559 isoform P55926-3): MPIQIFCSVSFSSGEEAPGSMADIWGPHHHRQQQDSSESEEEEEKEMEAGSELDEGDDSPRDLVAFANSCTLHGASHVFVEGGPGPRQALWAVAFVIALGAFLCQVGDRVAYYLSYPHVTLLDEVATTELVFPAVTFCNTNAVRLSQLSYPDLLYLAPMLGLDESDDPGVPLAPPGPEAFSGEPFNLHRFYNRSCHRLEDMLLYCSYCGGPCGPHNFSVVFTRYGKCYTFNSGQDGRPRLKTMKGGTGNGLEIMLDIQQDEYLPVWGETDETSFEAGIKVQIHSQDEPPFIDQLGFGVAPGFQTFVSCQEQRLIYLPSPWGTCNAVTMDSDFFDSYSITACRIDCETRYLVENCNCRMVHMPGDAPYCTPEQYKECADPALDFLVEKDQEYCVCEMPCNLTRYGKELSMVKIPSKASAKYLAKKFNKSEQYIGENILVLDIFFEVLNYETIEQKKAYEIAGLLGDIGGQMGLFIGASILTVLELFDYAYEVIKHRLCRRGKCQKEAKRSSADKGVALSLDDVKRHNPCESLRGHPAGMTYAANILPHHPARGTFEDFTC
Experimental: (§1) Oocytes expressed rASIC1a, rASIC1b, rASIC2a, and rASIC3 homomeric channels were prepared as described. Injected oocytes were kept for two–three days at 19 °C and then for up to seven days at 15 °C in ND-96 medium supplemented with gentamycin (50 μg·mL^−1) and containing (in mM): 96 NaCl, 2 KCl, 1.8 CaCl2, 1 MgCl2, and 10 HEPES titrated to pH 7.4 with NaOH. Electrophysiological recordings were performed using the GeneClamp500 amplifier (Axon Instruments, Inverurie, UK) at a holding potential of -50 mV. The data were filtered at 20 Hz and digitized at 100 Hz using the L780 AD converter (L-Card, Moscow, Russia). Microelectrodes were filled with 3 M KCl. The external bath solution was ND-96 with pH adjusted to 7.4/7.8 (10 mM HEPES) /8.5 (10 mM Tris). Nocistatin containing solutions were freshly prepared and buffered each experimental day in ND-96 bath solution (pH 7.4/7.8/8.5). Proton-activated currents through ASIC channels were elicited by application of ND-96, in which 10 mM of HEPES was substituted with 10 mM MES at pH 5.5/ 10 mM acetic acid at pH 4.5. The whole-cell recording was performed if a response to the control pH stimulus was stable in at least two replicates. Nocistatin-activated currents were elicited by application of nocistatin containing solutions with various concentrations of the peptide.
(§2) Extracellular solutions were applied using a computer-controlled valve system with a flow rate of 1 mL/min. The oocyte chamber volume was 80 µL. The validity of the application system for studying ASIC channels expressed in oocytes was confirmed in experiments by application of a Cl-free solution (containing (in mM): 130 NMDG, 1 MgGluc2, 2 KGluc, 5 HEPES) (pH 7.4). Fast application of proton/peptide-activating solution was performed at a flow rate of 1 mL/sec (the change of the bath solution occurred within 100 ms), followed by PC controlled flow stopping (from 5 to 15 s).
(d) The time course of curves’ decay was fitted using a mono-exponential equation: F4(x) = A1*e^(-x/τdes) + A0, where F4(x) is the current amplitude at the time point x, A1 is the maximal current amplitude, A0 is its steady-state value and τdes is the […].
All data are presented as mean ± SEM. The significance of normalized data differences was determined with a non-parametric Kruskal-Wallis ANOVA test with the significance level * p < 0.05 and ** p < 0.01; ns, non-significant.

homomeric ASICs = assay: Whole-cell current, homomeric ASICs in oocytes (all isoforms together); format: cell-based, rat
Experimental: as §1, §2

[1] = ref [27]; cited from earlier work
Description: (§3) The nocistatin in mammalian is expressed as a precursor protein coding three neuropeptides (nocistatin, nociceptin, and Orphanin FQ2). […] Nocistatin is well represented in different parts of the brain and spinal cord. […] Nocistatin was studied in animal models as a prospective molecule together with opi ...

NIPSNAP1 = details: ref [32]; cited from earlier work
Description: as §3

[2] = tested on: canonical transient receptor potential cation (TRPC) channels; details: via unidentified G-coupled receptor(s), Gαq/11-phospholipase C-protein kinase C pathway; ref [31]; cited from earlier work
Description: as §3

mice = details: ref [28]; cited from earlier work
Description: as §3

mouse = details: cited from earlier work
Description: as §3

MPRVRSVVQARDAEPEADAEPVADEADEVEQKQLQ [rNS]
Acurrent, nocistatin versus protons (rat ASIC1b; 1 mM rNS vs pH drop 7.4–5.5): did not differ between protons and nocistatin
Desensitization time, difference between stimuli (rat ASIC1b; 1 mM rNS vs pH drop 7.4–5.5): No differences were observed in desensitization time
tmax, nocistatin versus protons (rat ASIC1b; 1 mM rNS vs pH drop 7.4–5.5): no differences
τdes (desensitization time constant) (rat ASIC1b; 1 mM rNS, conditioning pH 7.4, mean ± S.E. from 4–7 measurements): 0.5 ± 0.06 s
Response to a pH drop after washing out the peptide (homomeric ASICs; after washout): completely restored after washing out the peptide
Response to rapid acidification after activation by the peptide (homomeric ASICs; pH drop after 1 mM rNS): did not respond further to rapid acidification after activation by the peptide
Effect of application at resting pH 7.4 (homomeric ASICs; resting pH 7.4, 1 mM rNS): causes rapidly activating inward currents in homomeric ASICs
Effect on scopolamine-induced impairment of learning and memory [1]: prevented the disruption of learning and memory processes
Binding to NIPSNAP1 (NIPSNAP1): nocistatin binding proteins
Effect on TRPC channels [2]: opening of canonical transient receptor potential cation (TRPC) channels
Effect in elevated plus-maze test (mice): produced anxiogenic-like actions
Effect on nociceptin-caused allodynia and thermal hyperalgesia (mouse; doses of 0.5–500 pg per mouse, ref [29]): eliminated allodynia and thermal hyperalgesia effects
Effect in algogenic-induced nociceptive flexion test (mouse; i.pl. 0.01–1 pmol per mouse, ref [30]): induced pronociceptive responses
